Source: patent US7425532B2, “Use of alanyl aminopeptidase inhibitors and pharmaceutical compositions containing said inhibitors” (IMTM GmbH, priority 2002, dated 2008)

Legend:
[1] = system: human regulatory T-lymphocytes (CD4+CD25+); assay: Gene expression of TGF-β1 (TGF-β1-mRNA) in human regulatory T-lymphocytes, quantitative RT-PCR; type: cell-based; conditions: PHA/PMA plus inhibitor
Description: Induction of the Gene Expression of TGF-β1 in Human Regulatory T-Lymphocytes (CD4^+CD25^+) After an Incubation with the Inhibitor Phebestin
(§1) The T-cells were incubated for 24 h without adding (control), with adding PHA and PMA or with simultaneously adding PHA/PMA and phebestin. PHA (phythemagglutinine) and PMA (phorbol myristate acetate) were used as mito-gens and agents stimulating the proliferation. Subsequently, the content of TGF-β1-mRNA was determined by quantitative RT-PCR and using the i-cycler.
Induction of the Gene Expression of TGF-β1 in Human Regulatory T-Lymphocytes (CD4^+CD25^+) after an incubation with the inhibitor PAQ-22
as §1, with “PMA and” for “PMA or”, “and PAQ-22.” for “and phebestin.”
Induction of the Gene Expression of TGF-β1 in Human Regulatory T-Lymphocytes (CD4^+CD25^+) After an Incubation with the Aminopeptidase Inhibitor RB3014
as §1, with “for 72” for “for 24”, “PMA and” for “PMA or”, “and RB3014.” for “and phebestin.”

[2] = system: human regulatory T-lymphocytes (CD4+CD25+); assay: Surface expression of TGF-β1 on human regulatory T-lymphocytes, flow cytometry with anti-TGF-β1 antibody; type: cell-based; conditions: 24 h incubation, PHA/PMA plus inhibitor; results only in FIG. 1
Description: Induction of the Surface Expression of TGF-β1 on Human Regulatory T-Lymphocytes (CD4^+CD25^+) After Incubation with the Inhibitor Phebestin
The T-cells were incubated for 24 h without adding (control), with adding PHA and PMA and with simultaneously adding PHA/PMA and phebestin. PHA (phythemagglutinine) and PMA (phorbol myristate acetate) were used as mito-gens and agents stimulating the proliferation. Subsequently, the surface expression of TGF-β1 was measured by flow cytometry using a commercially available polyclonal anti-TGF-β1 antibody (chicken anti-human; R & D Systems).

[3] = 24 h incubation, results only in FIG. 2, FIG. 3

Structure (SMILES)	gene expression of TGF-β1 (content of TGF-β1-mRNA) [1, 3]	surface expression of TGF-β1 [2]	gene expression of TGF-β1 (content of TGF-β1-mRNA) ([1]; 72 h incubation, results only in FIG. 4)
CCc1cccc(CC)c1-n1c(=O)[nH]c2ccccc2c1=O [PAQ-22]	Induction		
CC(C)[C@H](NC(=O)[C@@H](O)[C@H](N)Cc1ccccc1)C(=O)N[C@@H](Cc1ccccc1)C(=O)O [Phebestin, phebestin]	Induction	Induction	
CC(N)P(=O)(O)CC(Cc1ccccc1)C(=O)NC(Cc1ccccc1)C(=O)O (stereo not shown) [RB3014]			Induction
